“And” between values parts separate entries of the source, which are not always exact repeats. Identical values can stand only once. “Also recorded” adds a separate entry of the source. Counter-ions that a name gives are not always drawn. Like-named read-outs stand apart in the source and are kept apart here.

One assay deals with T1, TRPA1 (Rattus norvegicus, UniProt Q6RI86).
T1 construct: TRPA1 natively expressed on the central terminals of dorsal root ganglion neurons; from tissue; host or cells: lumbar spinal cord homogenate (synaptosomes) of adult male Sprague Dawley rats
T1 sequence (Q6RI86 whole entry): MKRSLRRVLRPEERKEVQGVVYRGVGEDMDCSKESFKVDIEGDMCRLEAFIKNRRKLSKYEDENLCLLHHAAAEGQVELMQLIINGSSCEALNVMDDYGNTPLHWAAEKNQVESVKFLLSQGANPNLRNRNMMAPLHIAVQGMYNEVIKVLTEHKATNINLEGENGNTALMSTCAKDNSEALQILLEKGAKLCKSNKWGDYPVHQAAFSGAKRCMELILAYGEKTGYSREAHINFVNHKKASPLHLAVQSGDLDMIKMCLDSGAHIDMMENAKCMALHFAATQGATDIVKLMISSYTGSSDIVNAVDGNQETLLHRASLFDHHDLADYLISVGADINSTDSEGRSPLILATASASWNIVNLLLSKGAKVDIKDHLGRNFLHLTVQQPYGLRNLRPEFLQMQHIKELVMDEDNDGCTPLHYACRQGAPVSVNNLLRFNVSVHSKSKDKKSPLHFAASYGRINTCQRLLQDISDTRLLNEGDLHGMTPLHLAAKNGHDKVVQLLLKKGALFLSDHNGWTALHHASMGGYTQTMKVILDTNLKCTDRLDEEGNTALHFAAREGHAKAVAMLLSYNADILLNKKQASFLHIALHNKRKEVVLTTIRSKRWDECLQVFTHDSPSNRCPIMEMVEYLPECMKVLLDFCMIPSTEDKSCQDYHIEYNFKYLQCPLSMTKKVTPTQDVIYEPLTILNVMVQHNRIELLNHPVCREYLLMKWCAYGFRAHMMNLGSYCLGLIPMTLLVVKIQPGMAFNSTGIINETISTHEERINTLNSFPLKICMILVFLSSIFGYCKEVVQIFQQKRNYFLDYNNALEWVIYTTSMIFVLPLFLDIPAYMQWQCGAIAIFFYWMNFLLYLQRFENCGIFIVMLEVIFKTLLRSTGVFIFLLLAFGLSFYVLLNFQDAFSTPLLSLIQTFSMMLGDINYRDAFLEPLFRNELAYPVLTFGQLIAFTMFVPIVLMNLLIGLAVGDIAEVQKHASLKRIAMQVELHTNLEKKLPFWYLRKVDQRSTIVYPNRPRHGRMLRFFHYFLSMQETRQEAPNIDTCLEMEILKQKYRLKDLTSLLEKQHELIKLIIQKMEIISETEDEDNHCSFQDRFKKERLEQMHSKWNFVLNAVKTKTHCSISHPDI
Description: cell-based.

Assay [1] relates to recombinantly‐expressed TRPA1 channels. As to conditions: cited from earlier work.
The next assay deals with spinal cord synaptosomes. Briefly: KCl (depolarization)-evoked CGRP release from rat spinal cord homogenate, ELISA. In kind it is cell-based. As to conditions: for CGRP release over basal release: n = 3. A general note: ELISA stands for enzyme-linked immunosorbent assay.
The test system of assay [2] is voltage‐gated calcium channels (VGCCs). In kind it is cell-based, rat.
For the next assay, the system named is T‐type VGCCs. On the set-up: method as in Martin et al. 2000. Conditions: ref Martin et al. 2000; cited from earlier work.
The test system of assay [3] is voltage‐gated calcium channels (VGCCs). The assay is classed as cell-based, rat. This is another data set of the same source.
The test system of the next assay is TRPM3. More on the design: method as in Wagner et al. 2008. As to conditions: ref Wagner et al. 2008; read-out: EC50 for activation of TRPM3; cited from earlier work.

Regarding `CCCCCC(O)/C=C/C=O` (stereo not shown) [4‐HNE, 4‐hydroxynonenal], on TRPA1 (read-out: EC50 of CGRP release), the EC50 is 17.4 ± 0.68 µM.
Turning to `CCCCCC(=O)C=CC=O` [4‐ONE, 4‐oxo‐2‐nonenal], the EC50 in assay [1] (ref Taylor‐Clark et al. 2008, read-out: previously reported EC50 value) is about 2 µM; at TRPA1 (rat spinal cord homogenate, ELISA, mean ± SEM, read-out: EC50 of CGRP release), 63.8 µM and ~64 µM.
Consider `C=CCN=C=S` [AITC, allyl‐isothiocyanate], for which, on TRPA1, the “AITC-induced CGRP release” value is reported as 42 ± 11 % of 40 mmol/L KCl‐evoked release.
As to `CC(=C\c1ccc(Cl)cc1)/C(C)=N/O` [AP18], the “AITC-induced CGRP release in the presence of AP18” value at TRPA1 (50 μmol/L AP18, 100 μmol/L AITC, dorsal homogenate) is given as 8 ± 5 % of 40 mmol/L KCl‐evoked release. Further, the “cinnamaldehyde-evoked CGRP release in the presence of AP18” value at TRPA1 (50 μmol/L AP18, 100 μmol/L cinnamaldehyde, dorsal homogenate) is reported as −1 ± 3 % of 40 mmol/L KCl‐evoked release. Also, the “effect on CGRP release induced by 40 mmol/L and 60 mmol/L KCl” value with spinal cord synaptosomes (50 μmol/L AP18) is “no effect”.
For the compound `[Cl-].[K+]` [KCl], the “CGRP release evoked by 40 mmol/L KCl, absence of morphine” value with spinal cord synaptosomes (40 mmol/L KCl, dorsal homogenate, morphine experiment, n = 4) was 77 ± 7 % over basal release. The “CGRP release over basal release” value in the assay with spinal cord synaptosomes (40 mmol/L KCl, dorsal spinal cord homogenate, dorsal/ventral experiment) was 67 ± 9 % over basal release; in the assay on spinal cord synaptosomes (40 mmol/L KCl, ventral spinal cord homogenate) it was 6 ± 4 % over basal release. For the same compound, the “CGRP release evoked by 60 mmol/L KCl, absence of morphine” value in the assay with spinal cord synaptosomes (60 mmol/L KCl, dorsal homogenate, morphine experiment, n = 4) is 131 ± 17 % over basal release.
As for `O=C/C=C/c1ccccc1` [cinnamaldehyde], the “cinnamaldehyde-evoked CGRP release” value on TRPA1 (100 μmol/L cinnamaldehyde, dorsal homogenate, absence of AP18) was 39 ± 8 % of 40 mmol/L KCl‐evoked release. Moreover, the “CGRP release over basal release” value on TRPA1 (100 μmol/L cinnamaldehyde, dorsal spinal cord homogenate, n = 3) is listed as 14 ± 5 % over basal release; at TRPA1 (100 μmol/L cinnamaldehyde, ventral spinal cord homogenate, n = 3) it was 0 ± 1 % over basal release. The “response to 1000 μmol/L cinnamaldehyde in Ca2+ free solutions as % of the response in Ca2+ containing solutions” value on TRPA1 (1000 μmol/L, Ca2+ free, 1 mmol/L EGTA, mean ± SEM, n = 3) is 18 ± 6%. Moreover, the EC50 on TRPA1 (EC50 of CGRP release, rat spinal cord homogenate, ELISA, mean ± SEM) is 54.8 ± 5.84 µM.
Take `COCC(=O)O[C@]1(CCN(C)CCCc2nc3ccccc3[nH]2)CCc2cc(F)ccc2[C@@H]1C(C)C` [mibefradil dihydrochloride]: the “effect on 100 μmol/L cinnamaldehyde-induced CGRP release” value in assay [2] (nifedipine 5 μmol/L, mibefradil dihydrochloride 10 μmol/L, ω‐conotoxin MVIIC 200 nmol/L, ANOVA) is reported as “not significantly altered; also recorded: not significantly affected”. In addition, the “greater affinity for T-type VGCCs than for L-type VGCC” value in the assay on T‐type VGCCs was 12–13 fold. Further, the “decrease of high potassium-induced CGRP release” value in assay [3] (40 mmol/L KCl, mibefradil dihydrochloride 10 μmol/L, cocktail) is ~ 50%. In assay [3] (nifedipine 5 μmol/L, ω‐conotoxin MVIIC 200 nmol/L, mibefradil dihydrochloride 10 μmol/L, cocktail), the “effect on 40 mmol/L KCl-induced CGRP release” value is listed as “significantly decreased”. In addition, in assay [3] (ω‐conotoxin MVIIC 1 μmol/L, mibefradil dihydrochloride 10 μmol/L, cocktail (5 μmol/L nifedipine, 1 μmol/L ω‐conotoxin MVIIC, 10 μmol/L mibefradil)), the “depolarization-induced CGRP release in the presence of inhibitor” value is listed as 48 ± 6 % of control 40 mmol/L KCl‐evoked release.
On to `COC(=O)C1=C(C)NC(C)=C(C(=O)OC)C1c1ccccc1[N+](=O)[O-]` [nifedipine], for which the half-maximal effective concentration (EC50) is about 30 µM in the assay on TRPM3 and about 0.4 µM in assay [1] (ref Fajardo et al. 2008, read-out: EC50 for activation of recombinantly-expressed TRPA1 channels).
In the case of ω‐conotoxin MVIIC, the “effect on 100 μmol/L cinnamaldehyde-induced CGRP release” value in assay [2] is reported as “not significantly altered; also recorded: not significantly affected”. In assay [3], the “depolarization-induced CGRP release in the presence of inhibitor” value was 73 ± 8 % of control 40 mmol/L KCl‐evoked release.

By EC50 is commonly meant the concentration needed to bring the measured effect to its halfway point.

Values taken from publication PMC4777244, “Activation of transient receptor potential ankyrin 1 induces CGRP release from spinal cord synaptosomes” (Pharmacology Research & Perspectives, 2015).
